# In US4450269A, “Mono-5-substituted-3-chloro-4H-1,2,6-thiadiazin-4-one antifungal agents” (FMC Corporation, priority 1980, dated 1984):
# Where a name gives a salt, the structure may show the parent alone.
# Test system: Cladosporium cucumerinum
# Experiment: Mycelial growth test
# Format: cell-based
# Settings: CC; for Percent Fungus Growth Inhibition: 72 hours, hydrochloride; for inhibition at 5 ppm / inhibition at 10 ppm / inhibition at 40 ppm / inhibition at 20 ppm: Cladosporium cucumerinum, read-out: Percent Fungus Growth Inhibition; for inhibition at 5 ppm / inhibition at 10 ppm / inhibition at 40 ppm: 72 h; for inhibition at 20 ppm: CC20, 72 h
# Source text: |CC = Cladosporium cucumerinum
SMILES,Percent Fungus Growth Inhibition (5 ppm) [%],Percent Fungus Growth Inhibition (10 ppm) [%],Percent Fungus Growth Inhibition (40 ppm) [%],inhibition at 5 ppm (5 ppm) [%],inhibition at 10 ppm (10 ppm) [%],inhibition at 40 ppm (40 ppm) [%],inhibition at 20 ppm [%]
"Nc1ccc(Oc2nsnc(Cl)c2=O)cc1 [Compound 27, 5-(4-aminophenoxy)-3-chloro-4H--1,2,6-thiadiazine-4-one hydrochloride]",31,40,54,–,–,–,–
"O=c1c(Cl)nsnc1Oc1ccc([N+](=O)[O-])cc1Cl [Compound 53, 3-chloro-5-(2-chloro-4-nitrophenoxy)-4H--1,2,6-thiadiazin-4-one]",–,–,–,45,61,65,71
"CC(=O)Nc1cccc(Oc2nsnc(Cl)c2=O)c1 [Compound 42, 3-[(3-N--acetylamino)-phenoxy]-5-chloro-4H--1,2,6-thiadiazin-4-one]",–,–,–,14,22,18,14
"COc1ccc(Oc2nsnc(Cl)c2=O)cc1 [Compound 5, 3-chloro-5-(4-methoxyphenoxy)4H--1,2,6-thiadiazin-4-one]",–,–,–,50,75,100,100
"O=c1c(Cl)nsnc1Oc1ccccc1Cl [Compound 14, 3-chloro-5-(2-chlorophenoxy)-4H--1,2,6-thiadiazin-4-one]",–,–,–,67,50,100,100
"O=c1c(Cl)nsnc1Oc1ccccc1 [Compound 2, 3-chloro-5-phenoxy-4H--1,2,6-thiadiazin-4-one]",–,–,–,46,58,100,100
"CS(=O)(=O)c1ccc(Oc2nsnc(Cl)c2=O)cc1 [Compound 41, 3-chloro-5-[(4-methylsulfonyl)phenoxy]-4H--1,2,6-thiadiazin-4-one]",–,–,–,10,32,65,48
"O=C(OCc1ccccc1)Oc1ccc(Oc2nsnc(Cl)c2=O)cc1 [Compound 38, 3-chloro-5-[4-(phenylmethoxycarbonyloxy)phenoxyl]-4H-1,2,6-thiadiazin-4-one]",–,–,–,0,0,26,0
"Cc1cccc(C)c1Oc1nsnc(Cl)c1=O [Compound 24, 3-chloro-5-(2,6-dimethylphenoxy)-4H--1,2,6-thiadiazin-4-one]",–,–,–,46,65,100,100
"O=c1c(Cl)nsnc1Oc1ccc(Br)cc1 [Compound 15, 3-chloro-5-(4-bromophenoxy)-4H--1,2,6-thiadiazin-4-one]",–,–,–,9,55,100,82
"O=c1c(Cl)nsnc1Oc1ccccc1Br [Compound 34, 3-chloro-5-(2-bromophenoxy)-4H-1,2,6,-thiadiazin-4-one]",–,–,–,6,28,86,61
"Cc1cc(C)cc(Oc2nsnc(Cl)c2=O)c1 [Compound 25, 3-chloro-5-(3,5-dimethylphenoxy)-4H--1,2,6-thiadiazin-4-one]",–,–,–,27,50,100,77
"CCOC(=O)c1ccc(Oc2nsnc(Cl)c2=O)cc1 [Compound 7, 3-chloro-5-(4-ethoxycarbonylphenoxy)-4H--1,2,6-thiadiazin-4-one]",–,–,–,9,36,100,100
"Cc1cccc(Oc2nsnc(Cl)c2=O)c1 [Compound 21, 3-chloro-5-(3-methylphenoxy)-4H--1,2,6-thiadiazin-4-one]",–,–,–,38,38,85,69
"N#CCc1ccc(Oc2nsnc(Cl)c2=O)cc1 [Compound 46, 3-chloro-5-[(4-cyanomethyl)-phenoxy]4H--1,2,6-thiadiazin-4-one]",–,–,–,0,0,100,46
"O=c1c(Cl)nsnc1Oc1cc(Cl)cc(Cl)c1 [Compound 20, 3-chloro-5-(3,5-dichlorophenoxy)-4H--1,2,6-thiadiazin-4-one]",–,–,–,100,100,100,100
"O=c1c(Cl)nsnc1Oc1cccc(C(F)(F)F)c1 [Compound 44, 3-chloro-5-[(3-trifluoromethyl)phenoxy]-4H--1,2,6-thiadiazin-4-one]",–,–,–,36,56,100,92
